# From patent publication US10363239B2, “Method for inhibiting growth of cancer cells” (Pain Therapeutics, Inc., priority 2013, dated 2019)
# Where two headings read alike, the source gives them in different places.
# Assays:
# [1] = biological target: FLNA pentapeptide of SEQ ID NO: 1 (Bn-VAKGL) (Homo sapiens, UniProt P21333); assay: FITC-NLX-based FLNA screening assay (inhibition of FITC-naloxone binding to Bn-VAKGL on streptavidin plates); conditions: 10 nM FITC-NLX
# [2] = test system: mu opiate receptor (MOR); assay: MOR agonist activity using [35S]GTPγS binding assay in striatal membranes; assay type: biochemical; conditions: for MOR agonist activity ([35S]GTPγS binding), FLNA-Binding Compound as Agonist 1 μM + BFNA: 1 μM compound + 1 μM β-funaltrexamine
# In short: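 Striatal membranes (200 μg) were preincubated 5 min at 30 °C in HEPES pH 7.5 with 100 mM NaCl, 1 mM MgCl2 and 0.5 nM [35S]GTPγS, then 5 min more with 0.1–10 μM compound. Gαo was immunoprecipitated and bound radioactivity counted by scintillation.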
# [3] = FLNA-binding compound 0.01 μM, read-out: Percent Binding Inhibition
# [4] = FLNA-binding compound 0.1 μM, read-out: Percent Binding Inhibition
# [5] = FLNA-binding compound 1 μM, read-out: Percent Binding Inhibition
# [6] = 0.1 μM compound relative to DAMGO
# [7] = 1 μM compound + BFNA relative to DAMGO + BFNA
# [8] = 1 μM compound relative to DAMGO
# [9] = read-out: Percent Binding Inhibition, FLNA-binding compound 0.01 μM
# [10] = read-out: Percent Binding Inhibition, FLNA-binding compound 0.1 μM
# [11] = read-out: Percent Binding Inhibition, FLNA-binding compound 1 μM
# [12] = Series C-2, 0.1 μM compound, relative to DAMGO
# [13] = Series C-2, 0.1 μM compound, [35S]GTPγS binding to Gαo, striatal membranes
# [14] = Series C-2, 1 μM compound + 1 μM β-FNA
# [15] = Series C-2, 1 μM compound + β-FNA, relative to DAMGO + BFNA
# [16] = Series C-2, 1 μM compound, relative to DAMGO
# [17] = Series C-2, 1 μM compound, [35S]GTPγS binding to Gαo, striatal membranes
# [18] = Series B, 0.1 μM compound, relative to DAMGO
# [19] = Series B, 0.1 μM compound, [35S]GTPγS binding to Gαo, striatal membranes
# [20] = Series B, 1 μM compound + 1 μM β-FNA
# [21] = Series B, 1 μM compound + β-FNA, relative to DAMGO + BFNA
# [22] = Series B, 1 μM compound, relative to DAMGO
# [23] = Series B, 1 μM compound, [35S]GTPγS binding to Gαo, striatal membranes
# [24] = Series C-1, 0.1 μM compound, relative to DAMGO
# [25] = Series C-1, 0.1 μM compound, [35S]GTPγS binding to Gαo, striatal membranes
# [26] = Series C-1, 1 μM compound + 1 μM β-FNA
# [27] = Series C-1, 1 μM compound + β-FNA, relative to DAMGO + BFNA
# [28] = Series C-1, 1 μM compound, relative to DAMGO
# [29] = Series C-1, 1 μM compound, [35S]GTPγS binding to Gαo, striatal membranes
compound,measurement,setting,value
CC1CCC(C(C)C)C(OCC(O)CN2CCN(CCN3CCOCC3)CC2)C1 (stereo not drawn) [Compound A0011],inhibition at 0.01 µM,[1]; [3],45.7%
same,inhibition at 0.1 µM,[1]; [4],51.1%
same,inhibition at 1 µM,[1]; [5],52.8%
same,"MOR agonist activity ([35S]GTPγS binding), FLNA-Binding Compound as Agonist 0.1 μM",[2]; 0.1 μM compound,236.3%
same,% DAMGO (0.1 μM),[2]; [6],158.2%
same,"MOR agonist activity ([35S]GTPγS binding), FLNA-Binding Compound as Agonist 1 μM",[2]; 1 μM compound,287.5%
same,"MOR agonist activity ([35S]GTPγS binding), FLNA-Binding Compound as Agonist 1 μM + BFNA",[2],47.0%
same,% DAMGO + BFNA,[2]; [7],177.4%
same,% DAMGO (1 μM),[2]; [8],124.9%
CCc1ccc(S(=O)(=O)N2CCOC23CCN(CC2CC2)CC3)cc1 [Compound C0135M],inhibition at 0.01 µM,[1]; [9],53.9%
same,inhibition at 0.1 µM,[1]; [10],55.1%
same,inhibition at 1 µM,[1]; [11],62.3%
same,% DAMGO (0.1 μM),[2]; [12],85.3%
same,"MOR agonist activity, percent [35S]GTPγS binding at the stated compound concentration",[2]; [13],161.3%
same,"MOR agonist activity, percent [35S]GTPγS binding at the stated compound concentration",[2]; [14],113.3%
same,% DAMGO + BFNA,[2]; [15],233.6%
same,% DAMGO (1 μM),[2]; [16],124.9%
same,"MOR agonist activity, percent [35S]GTPγS binding at the stated compound concentration",[2]; [17],310.1%
COc1c2c(cc3c1C(CC(=O)Cc1ccccc1C)[N+](C)(C)CC3)OCO2 (stereo not drawn) [Compound B0031],inhibition at 0.01 µM,[1]; [9],36.2%
same,inhibition at 0.1 µM,[1]; [10],44.2%
same,inhibition at 1 µM,[1]; [11],50.5%
same,% DAMGO (0.1 μM),[2]; [18],109.6%
same,"MOR agonist activity, percent [35S]GTPγS binding at the stated compound concentration",[2]; [19],210.8%
same,"MOR agonist activity, percent [35S]GTPγS binding at the stated compound concentration",[2]; [20],28.8%
same,% DAMGO + BFNA,[2]; [21],65.6%
same,% DAMGO (1 μM),[2]; [22],99.6%
same,"MOR agonist activity, percent [35S]GTPγS binding at the stated compound concentration",[2]; [23],272.0%
COc1cccc(OC)c1CC(=O)CC1c2c(cc3c(c2OC)OCO3)CC[N+]1(C)C (stereo not drawn) [Compound B0036],inhibition at 0.01 µM,[1]; [9],46.6%
same,inhibition at 0.1 µM,[1]; [10],52.8%
same,inhibition at 1 µM,[1]; [11],62.1%
same,% DAMGO (0.1 μM),[2]; [18],39.2%
same,"MOR agonist activity, percent [35S]GTPγS binding at the stated compound concentration",[2]; [19],61.4%
same,"MOR agonist activity, percent [35S]GTPγS binding at the stated compound concentration",[2]; [20],65.1%
same,% DAMGO + BFNA,[2]; [21],199.7%
same,% DAMGO (1 μM),[2]; [22],52.1%
same,"MOR agonist activity, percent [35S]GTPγS binding at the stated compound concentration",[2]; [23],120.6%
O=C1CN(Cc2ccccc2)C2(CCN(CC3CC3)CC2)N1 [Compound C0125M],inhibition at 0.01 µM,[1]; [9],54.2%
same,inhibition at 0.1 µM,[1]; [10],59.7%
same,inhibition at 1 µM,[1]; [11],63.3%
same,% DAMGO (0.1 μM),[2]; [12],89.1%
same,"MOR agonist activity, percent [35S]GTPγS binding at the stated compound concentration",[2]; [13],168.6%
same,"MOR agonist activity, percent [35S]GTPγS binding at the stated compound concentration",[2]; [14],159.7%
same,% DAMGO + BFNA,[2]; [15],329.3%
same,% DAMGO (1 μM),[2]; [16],78.6%
same,"MOR agonist activity, percent [35S]GTPγS binding at the stated compound concentration",[2]; [17],195.2%
CC1CN(CC(O)COc2ccccc2)CC(C)O1 (stereo not drawn) [Compound A0025],inhibition at 0.01 µM,[1]; [9],39%
same,inhibition at 0.1 µM,[1]; [10],49.8%
same,inhibition at 1 µM,[1]; [11],53.2%
same,"MOR agonist activity ([35S]GTPγS binding), FLNA-Binding Compound as Agonist 0.1 μM",[2]; 0.1 μM compound,58.6%
same,% DAMGO (0.1 μM),[2]; [6],33.2%
same,"MOR agonist activity ([35S]GTPγS binding), FLNA-Binding Compound as Agonist 1 μM",[2]; 1 μM compound,138.7%
same,"MOR agonist activity ([35S]GTPγS binding), FLNA-Binding Compound as Agonist 1 μM + BFNA",[2],52.2%
same,% DAMGO + BFNA,[2]; [7],198.5%
same,% DAMGO (1 μM),[2]; [8],54.5%
COc1ccc(S(=O)(=O)N2CCC3(OCCN3S(=O)(=O)c3ccc(OC)cc3)C3CCCCC32)cc1 (stereo not drawn) [Compound C0144M],inhibition at 0.01 µM,[1]; [3],46.4%
same,inhibition at 0.1 µM,[1]; [4],50.7%
same,inhibition at 1 µM,[1]; [5],55.7%
same,% DAMGO (0.1 μM),[2]; [24],108.3%
same,Concentration of FLNA-Binding Compound as Agonist 0.1 μM,[2]; [25],186.3%
same,Concentration of FLNA-Binding Compound as Agonist 1 μM + BFNA,[2]; [26],125.9%
same,% DAMGO + BFNA,[2]; [27],137.9%
same,% DAMGO (1 μM),[2]; [28],90.8%
same,Concentration of FLNA-Binding Compound as Agonist 1 μM,[2]; [29],295.9%
O=S(=O)(c1ccc(Br)cc1C(F)(F)F)N1CCC2(CC1)OCCN2S(=O)(=O)c1ccc(Br)cc1C(F)(F)F [Compound C0068],inhibition at 0.01 µM,[1]; [9],53.7%
same,inhibition at 0.1 µM,[1]; [10],58.6%
same,inhibition at 1 µM,[1]; [11],62.2%
same,% DAMGO (0.1 μM),[2]; [24],53.4%
same,Concentration of FLNA-Binding Compound as Agonist 0.1 μM,[2]; [25],107.2%
same,Concentration of FLNA-Binding Compound as Agonist 1 μM + BFNA,[2]; [26],165.9%
same,% DAMGO + BFNA,[2]; [27],307.8%
same,% DAMGO (1 μM),[2]; [28],83.8%
same,Concentration of FLNA-Binding Compound as Agonist 1 μM,[2]; [29],263.1%
